Data as given in patent US10179142B2, “Treatment and/or prevention of bone metastasis” (The Arizona Board of Regents on behalf of The University of …, priority 2013, dated 2019).
Entries after “also recorded” stand apart in the source; their conditions may differ.

Assays:
Type in all cases: cell-based, human
PC-3 cells [1] = assay: Migration wound closure assay; details: for migration / motility (wound healing): prostate cancer cells, concentration not given
Experimental: PC-3, DU145 and LNCaP cells were grown in six-well plates in the presence of 10% FBS. Once the cells formed a monolayer, near confluency a wound was done manually with a sterile […] pipette tip in the center of each well. Cells were treated with vehicle alone (DMSO) or 10 μM of compound IV and were grown in the presence of 2% FBS. After 18 hours, the migrating cells were photographed. The wound closure was quantified by measuring the distance between the two sides of the wound. The results represent an average of two independent experiments, each run in triplicates.
(§1) As reported previously, inhibition of Tiam-1 and subsequent inactivation of downstream signaling proteins leads to reduced actin cytoskeleton rearrangements resulting in decreased cell motility. […] FIG. 4, Panel A, A wound channel was introduced near-to-confluent non-treated or treated PC-3 cells with 10 μM V pKLO1 mock-transfection control cells, and shRNA cell line 1.2 (GS-1). […] FIG. 4, Panel B, PC-3 cells and Tiam-1 shRNA cell line 1.2 (shRNA 1.2) were treated as indicated, then stimulated with 20% FBS for 20 minutes to induce lamellipodia formation and stained with rhodamin phalloidin. Individual lamellipodia were counted in a minimum of 10 cells in each respective group and statistical analysis was performed using a Student's t-test. […] FIG. 4, Panel C, pKLO1 PC-3 cells, pKLO1 treated with 10 μM compound V and shRNA 1.2 cells were allowed to invade through Matrigel-coated transwell plates. Invading cells were stained after 12 hours and counted at 20× power (left side). […] In order to test our hypothesis, cells were stained with rhodamin phalloidin and then analyzed for actin/cytoskeleton formations, such as lamellipodia. […] Thus, the observed reduction in cellular motility in compound V treated cells and Tiam-1 silenced cells may be the result of f-actin disruption and reduced frequencies of lamellipodia formation. We next tested whether the compound of Formula V affected invasion of PC-3 through Matrigel-coated transwells.

PC-3 cells [2] = assay: Matrigel invasion assay; details: for invasion: prostate cancer cells, concentration not given
Experimental: PC-3 cells were pre-treated with DMSO vehicle control or with drug for 4 hours in T-25 flasks. Thereafter, 50,000 cells were then plated into the upper chamber that has been pre-coated with Matrigel (BD Sciences, San Jose, Ca) in the presence of drug or DMSO and serum-free media. The bottom well contained complete media including 10% FBS and 0.5% BSA as chemoattractants. After 24 hours, the upper chambers were removed, and any remaining cells within the insert were wiped with a cotton swab. Invading cells were then stained with 2% crystal violet in 20% methanol. Cells were then counted using a Zeiss stereomicroscope at 20× power. 10 random fields were counted. The results represent an average of two independent experiments, each run in triplicates.
as §1, with “We next tested whether the compound of Formula V affected invasion of PC-3 through Matrigel-coated transwells.” left out

prostate cancer cells = assay: Colony formation (FIG. 4, cell line not given)
Experimental: PC-3, LNCaP and DU145 cells were plated at 1000 cells/well into standard 6-well plates (3.5 cm) in the presence of complete media. The next day cells were drugged at increasing concentrations ranging from 1 to 50 μM in triplicate wells. Cells were viewed twice weekly to check for colony growth and confluence. Media and respective drugs were carefully replaced every three days. At day 12, media was aspirated and resulted colonies were stained with crystal violet (0.5% w/v) dissolved in ethanol for one minute, washed with water, and air dried as already described in reference. The resulting colonies were counted utilizing an Optronix Colony counter using ColCount software (Oxford Optronix Ltd, UK). The results represent an average of two independent experiments, each run in triplicates.

[3] = tested on: active Rac1 in PC-3 cells; assay: Rac1 activation assay (GLISA); details: 1 μM, 4 hours, then 50 ng/ml hHGF for 2 minutes
Experimental: Rac1 activity was determined by the colorimetric GLISA Kit BK128 (Cytoskeleton, Inc, Denver, Co). Briefly, PC-3 (PC-3, pKLO.1, GS-1 and GS-2 cells), DU 145 and LNCap cells were grown to 75% confluence and then serum starved for 48 hours. Drugs were then added for 4 hours and cells were stimulated with 50 ng/ml hHGF (Gibco Life Sciences, Carlsbad, Ca) for 2 minutes. Cells were then lysed and harvested as described in the kit-supplied protocol. Protein concentration was normalized to 1.0 g/l. Plates were read in an absorbance spectrophotometer at 490 nm at 24° C. with 5 s medium orbital shaking. Data were analyzed as described in the supplied protocol. The results represent an average of three independent experiments, each run in duplicates.
A cellular screen of all hit compounds was conducted using the GLISA Rac1 activation kit. Briefly, PC-3 cells were drugged for 4 hours at 1 μM concentration with the selected compounds. Cells were then stimulated with 50 ng/ml of hHGF for 2 minutes. […] The isovolume of Tiam-1 PH domain (PDB 1FOE) was generated using GRID for the H-bond acceptor (−3.6 kcal/mol), the H-bond donor (−7.3 kcal/mol) and hydrophobic (−2.5 kcal/mol) probes. The critical residues are labeled around the isovolume surfaces. The dash lines represent hydrogen bonds between protein and inhibitors. […]

PC-3 cells [4] = assay: Lamellipodia forming assay
Experimental: Glass coverslips were sterilized with 100% EtOH and placed in 6-well plates. PC-3 cells, pKLO.1, GS-1 and GS-2 cells were plated at 3000 cells/well and allowed to adhere overnight. Cells where then serum starved for 48 hours, then treated with the indicated drug for 12 hours, and stimulated with 20% FBS for 30 minutes. Coverslips were then removed from the plates, washed twice with cold PBS, and fixed with 3.7% paraformaldehyde solution in PBS for 10 minutes. Cells were then permeabilized using 0.1% Triton X-100 for 5 minutes. Cells were stained with rhodamine phalloidin (Invitrogen, Carlsbad, Calif.) for 20 minutes using the supplied protocol. Coverslips were then air-dried and mounted using ProLong Gold with DAPI (Invitrogen, Carlsbad, Calif.) and stored at 4° C. Cells were visualized at 40× using Olympus Bx-50 microscope with the CellSens imaging software. Individual lamellipodia were counted in a minimum of 10 cells in each respective group and statistical analysis was done using a Student's t-test.
As reported previously, inhibition of Tiam-1 and subsequent inactivation of downstream signaling proteins leads to reduced actin cytoskeleton rearrangements resulting in decreased cell motility. […] FIG. 4, Panel A, A wound channel was introduced near-to-confluent non-treated or treated PC-3 cells with 10 μM V pKLO1 mock-transfection control cells, and shRNA cell line 1.2 (GS-1). […] FIG. 4, Panel B, PC-3 cells and Tiam-1 shRNA cell line 1.2 (shRNA 1.2) were treated as indicated, then stimulated with 20% FBS for 20 minutes to induce lamellipodia formation and stained with rhodamin phalloidin. Individual lamellipodia were counted in a minimum of 10 cells in each respective group and statistical analysis was performed using a Student's t-test. […] Invading cells were stained after 12 hours and counted at 20× power (left side). […] In order to test our hypothesis, cells were stained with rhodamin phalloidin and then analyzed for actin/cytoskeleton formations, such as lamellipodia. […]

[5] = prostate cancer cells, concentration not given

SMILES | migration / motility (wound healing) (PC-3 cells [1]) | invasion (PC-3 cells [2]) | colony formation (prostate cancer cells) | reduction of active Rac1 [3] | lamellipodia formation (PC-3 cells [4]; [5]) | wound closure (PC-3 cells [1]; PC-3 cells, 10 μM, after 18 hours) | invasion through Matrigel-coated transwells (PC-3 cells [2]; PC-3 cells, 10 μM) | lamellipodia formation (PC-3 cells [4]; PC-3 cells, 10 μM, stimulation with 20% FBS)
c1ccc(Cn2nnc3c(Sc4nnc(-c5ccncc5)o4)ncnc32)cc1 [VI] | inhibits; also recorded: reduce migration | inhibits; also recorded: reduce invasion | inhibits | most pronounced and significant reduction of active Rac1 | inhibits; also recorded: reduce lamellipodia formation | – | – | –
Cc1ccc(-n2cc(-c3cccs3)nc2SCc2n[nH]c(=S)n2Cc2ccccc2)cc1 [compound V] | inhibits; also recorded: reduce migration | inhibits; also recorded: reduce invasion | inhibits | most pronounced and significant reduction of active Rac1 | inhibits; also recorded: reduce lamellipodia formation | significant inability to close a wound | significantly reduced amount of invading cells | significantly reduced the frequency of lamellipodia formation
